# Measured values as given in patent US20120202754A1 (priority 2009, published 2012).
# Biological target: BoNT A light chain (BoNT A Lc) (Clostridium botulinum, UniProt P0DPI0)
# Format: biochemical
# BoNT A light chain (BoNT A Lc), sequence (P0DPI0 2-448 limits assumed): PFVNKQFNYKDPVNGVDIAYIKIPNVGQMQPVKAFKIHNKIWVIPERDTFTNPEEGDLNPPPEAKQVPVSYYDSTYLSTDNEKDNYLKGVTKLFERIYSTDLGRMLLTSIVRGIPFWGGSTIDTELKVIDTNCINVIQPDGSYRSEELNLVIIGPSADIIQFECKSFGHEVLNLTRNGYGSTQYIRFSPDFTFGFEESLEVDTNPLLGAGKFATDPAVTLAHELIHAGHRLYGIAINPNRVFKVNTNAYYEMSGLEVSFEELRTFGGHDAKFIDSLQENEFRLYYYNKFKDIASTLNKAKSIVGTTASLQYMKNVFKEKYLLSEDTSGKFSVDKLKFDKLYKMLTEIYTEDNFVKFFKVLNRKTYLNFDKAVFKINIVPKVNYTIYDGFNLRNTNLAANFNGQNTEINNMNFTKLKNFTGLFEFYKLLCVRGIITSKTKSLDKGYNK
row,Substance,effect of substitution or truncation on hydrolysis rate (in words)
1,S N K V R I D Q A N Q R A T K M L [Peptide P3],further enhanced the rate
2,S N R V R I D Q A N Q R A T R M L [Peptide P4],had no effect
3,V R I D A A N Q R A T R M [Peptide P7],decreased the hydrolysis rate significantly
4,N R V R I D A A N Q R A T R M [Peptide P5],enhanced cleavage velocity
